Experiments:
[1] = Ferric reducing antioxidant power (FRAP) assay; conditions: 37 °C, 30 min, 593 nm; FeSO4 standard curve; mean ± SD, n=3
Experimental: The FRAP of extracts and fractions were examined according to Kadum et al. method with slight modifications. […] A volume of 10 μL of methanol extract or fractions was transferred into 96-well microplates, followed by addition of 200 μL FRAP reagent and incubation at 37 °C for 30 min. The absorbance was checked through microplate reader (SPECTRAmax PLUS) at 593 nm. The absorbances of ferrous sulfate solution (FeSO4·7H2O), with a range of concentrations between 0.1 and 1 mM were used for plotting a calibration curve. The ascorbic acid was used as positive control and FRAP was presented as mM Fe (II)/g extract for extracts and mM Fe (II)/g fraction for fractions.

[2] = DPPH free radical scavenging assay; conditions: 30 min in dark, 517 nm; mean ± SD, n=3
Experimental: The DPPH assay was conducted in accordance with Lee et al. method. Initially, 100 µL of DPPH (5.9 mg in 100 mL ethanol) was mixed with 50 µL of the extracts or fractions. The mixtures were then kept in dark for 30 min at room temperature. The absorbance was measured using microplate reader at 517 nm. Quercetin was used as a positive control in the assay. The scavenging activity was calculated using the equation Scavenging Activity (%) = [(Ac – As)/Ac] × 100%, where (Ac) is the absorbance of the blank reagent while (As) is the absorbance of the tested samples. The analysis was performed in triplicates and the results were described as IC50 value.

DPPH IC50 [2] [µg/mL]	Compound	FRAP [1]
	O=C1O[C@H]([C@@H](O)CO)C(O)=C1O [Ascorbic acid]	180.64 ± 0.01 mmol Fe (II)/g Extract
8.6 ± 0.70	O=c1c(O)c(-c2ccc(O)c(O)c2)oc2cc(O)cc(O)c12 [Quercetin]	

From PMC8398081, “Antioxidant Activity, α-Glucosidase Inhibition and UHPLC–ESI–MS/MS Profile of Shmar (Arbutus pavarii Pamp)” (Plants, 2021)
